This is an account of results in US8609836B2, “4-aryl-2-anilino-pyrimidines” (Janssen Pharmaceutica NV, priority 2008, dated 2013).

Assay [1] addresses PLK4 (h) (Homo sapiens, UniProt O00444). As to the kind of experiment: PLK-4 human kinase inhibition, scintillation proximity assay (SPA). Format: biochemical. To be noted: read-out: PLK4 pIC50 (converted). Background: In a scintillation proximity assay essentially only radioactivity close to the scintillant gives light.
Assay [2] deals with GSK3β (h) (Homo sapiens, UniProt P49841). Put plainly: GSK-3β human kinase inhibition, SPA. To be noted: read-out: GSK3b pIC50 (converted). Format: biochemical. The method, boiled down:
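Radiometric: 33P-labelled peptide captured on streptavidin SPA beads after EDTA stop and imaged on Leadseeker. Reaction ran 1 h at RT, 1 μM cold ATP with 2 nM [γ-33P]ATP, 1 μM biotin-peptide substrate, human GSK3β 1 μg/ml, pH 7.4 Tris buffer.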

Assay [3] addresses CDK1/CyclinB (h) (Homo sapiens, UniProt P06493). As to the kind of experiment: CDK1/CyclinB human kinase inhibition, Invitrogen's FRET assay (Z'lyte). Type of assay: biochemical. To be noted: read-out: CDK1 pIC50 (converted). Summed up:
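Read-out is the 460 nm/538 nm emission ratio (390 nm excitation) after a 60 min protease development step. Before that, 10 μM ATP and 2 μM Z'lyte Ser/Thr peptide 12 react 60 min at room temperature with 0.2 μg/ml human CDK1/CyclinB in Hepes pH 7.5 containing MgCl2, EGTA and Brij-35.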

The target of assay [4] is PLK1 T210D (h) (Homo sapiens, UniProt P53350, T210D). As to the kind of experiment: PLK1 human kinase inhibition, SPA. Format: biochemical. To be noted: read-out: PLK1 pIC50 (converted). The method, boiled down:
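Kinase incubated 40 min at room temperature with 0.1 μM ATP (2 nM [γ-33P]ATP tracer), 2 μM biotinylated peptide, pH 8.0 Hepes buffer with 2 mM MnCl2 and 1 mM DTT; enzyme at 0.125 ng/ml. Stopped with EDTA; 33P-peptide bound to streptavidin scintillant beads and imaged.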

In assay [5] the target is PLK2 (h) (Homo sapiens, UniProt Q9NYY3). As to the kind of experiment: PLK2 human kinase inhibition, SPA. Format: biochemical. As to conditions: read-out: PLK2 pIC50 (converted). Summed up:
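33P incorporation into a biotinylated peptide (2 μM) was captured on streptavidin PVT beads and imaged on Leadseeker. Enzyme at 30 μg/ml, ATP 0.1 μM with 2 nM [γ-33P]ATP, Hepes pH 8.0 with MnCl2 and DTT. Incubation was 20 min at room temperature.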

Assay [6] deals with HCT-116. As to the kind of experiment: Cellular proliferation assay (Alamar blue), HCT-116. As to conditions: Homo sapiens, 10% FCS, 72 hours with compound, Alamar blue 4 h. Format: cell-based. Summed up:
(§1)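 Alamar blue fluorescence (544/590 nm) measured viable cells after 72 h compound exposure; dye incubation 4 h (HCT-116), 6 h (U87-MG) or 24 h (A2780, MDA-MB-231). Cells pre-seeded 24 h, grown in 10% FCS, 37° C, 5% CO2; effect expressed relative to control cells.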
In general terms: The colour change of resazurin is a common sign of viable cells or microbes.

In assay [7] the test system is U87-MG. As to the kind of experiment: Cellular proliferation assay (Alamar blue), U87-MG. Format: cell-based. As to conditions: Homo sapiens, U-87 MG; 10% FCS; 72 hours with compound; Alamar blue 6 h; read-out: U87-MG (cellular proliferation assay, Table 4) (converted). The method, boiled down: as §1
Assay [8] relates to A2780. As to the kind of experiment: Cellular proliferation assay (Alamar blue), A2780. Format: cell-based. To be noted: Homo sapiens, 10% FCS, 72 hours with compound, Alamar blue 24 h, read-out: A2780 (cellular proliferation assay, Table 4) (converted). The method, boiled down:
as §1

In assay [9] the test system is MDA-MB-231. Put plainly: Cellular proliferation assay (Alamar blue), MDA-MB-231. Format: cell-based. As to conditions: Homo sapiens, 10% FCS, 72 hours with compound, Alamar blue 24 h, read-out: MDA/MB231 (cellular proliferation assay, Table 4) (converted). Summed up:
as §1

Sequence of PLK4 (h) (O00444 whole entry): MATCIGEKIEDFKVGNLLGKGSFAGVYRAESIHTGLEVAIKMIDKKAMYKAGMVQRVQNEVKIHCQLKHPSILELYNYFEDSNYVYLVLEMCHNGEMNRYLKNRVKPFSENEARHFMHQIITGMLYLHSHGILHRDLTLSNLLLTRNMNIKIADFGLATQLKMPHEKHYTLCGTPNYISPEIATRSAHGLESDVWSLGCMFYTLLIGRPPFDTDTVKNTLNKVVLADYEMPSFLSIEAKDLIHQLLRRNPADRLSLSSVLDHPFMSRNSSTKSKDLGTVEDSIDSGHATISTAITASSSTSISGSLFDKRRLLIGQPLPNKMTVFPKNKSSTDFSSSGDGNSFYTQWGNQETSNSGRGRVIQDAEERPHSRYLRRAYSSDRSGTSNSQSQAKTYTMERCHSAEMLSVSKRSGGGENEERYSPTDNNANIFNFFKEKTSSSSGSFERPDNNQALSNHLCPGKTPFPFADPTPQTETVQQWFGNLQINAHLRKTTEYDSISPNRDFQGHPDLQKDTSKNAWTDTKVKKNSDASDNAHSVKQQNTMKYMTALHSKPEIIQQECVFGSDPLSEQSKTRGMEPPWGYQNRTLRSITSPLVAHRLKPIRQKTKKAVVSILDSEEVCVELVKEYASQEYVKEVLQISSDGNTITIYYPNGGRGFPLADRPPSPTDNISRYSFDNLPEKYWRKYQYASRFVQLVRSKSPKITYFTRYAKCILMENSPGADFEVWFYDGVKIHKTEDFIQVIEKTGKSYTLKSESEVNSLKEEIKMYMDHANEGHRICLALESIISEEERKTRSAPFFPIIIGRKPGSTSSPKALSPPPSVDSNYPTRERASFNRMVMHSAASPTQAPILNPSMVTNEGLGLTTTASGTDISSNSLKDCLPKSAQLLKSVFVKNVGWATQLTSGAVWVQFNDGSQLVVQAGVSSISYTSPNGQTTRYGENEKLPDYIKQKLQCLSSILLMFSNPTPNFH
Sequence of PLK1 T210D (h) (P53350 whole entry T210D): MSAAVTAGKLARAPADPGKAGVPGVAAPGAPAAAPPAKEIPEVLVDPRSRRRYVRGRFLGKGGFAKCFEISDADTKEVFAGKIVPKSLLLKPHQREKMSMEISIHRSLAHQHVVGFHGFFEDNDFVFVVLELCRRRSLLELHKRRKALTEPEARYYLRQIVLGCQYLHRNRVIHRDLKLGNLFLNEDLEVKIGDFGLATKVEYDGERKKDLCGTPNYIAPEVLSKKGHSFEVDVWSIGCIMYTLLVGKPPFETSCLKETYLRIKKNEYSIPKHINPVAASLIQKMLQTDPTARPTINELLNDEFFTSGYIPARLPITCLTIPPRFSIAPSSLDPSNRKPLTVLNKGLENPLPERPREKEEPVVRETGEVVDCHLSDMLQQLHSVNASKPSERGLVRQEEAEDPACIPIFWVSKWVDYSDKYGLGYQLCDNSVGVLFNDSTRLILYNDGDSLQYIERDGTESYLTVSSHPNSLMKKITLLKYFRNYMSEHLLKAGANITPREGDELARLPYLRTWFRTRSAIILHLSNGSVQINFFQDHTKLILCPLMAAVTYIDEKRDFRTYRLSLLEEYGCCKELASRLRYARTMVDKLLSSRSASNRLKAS
Sequence of CDK1/CyclinB (h) (P06493 whole entry): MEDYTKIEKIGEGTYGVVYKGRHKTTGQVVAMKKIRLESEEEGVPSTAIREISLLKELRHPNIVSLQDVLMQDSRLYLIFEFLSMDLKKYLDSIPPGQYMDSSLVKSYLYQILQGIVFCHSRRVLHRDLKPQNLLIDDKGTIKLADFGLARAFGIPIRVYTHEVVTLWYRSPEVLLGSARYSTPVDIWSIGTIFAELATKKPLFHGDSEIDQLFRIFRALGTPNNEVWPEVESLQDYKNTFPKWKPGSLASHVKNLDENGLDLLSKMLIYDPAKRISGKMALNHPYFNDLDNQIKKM
Sequence of CDK1/CyclinB (h) (P14635 whole entry partner): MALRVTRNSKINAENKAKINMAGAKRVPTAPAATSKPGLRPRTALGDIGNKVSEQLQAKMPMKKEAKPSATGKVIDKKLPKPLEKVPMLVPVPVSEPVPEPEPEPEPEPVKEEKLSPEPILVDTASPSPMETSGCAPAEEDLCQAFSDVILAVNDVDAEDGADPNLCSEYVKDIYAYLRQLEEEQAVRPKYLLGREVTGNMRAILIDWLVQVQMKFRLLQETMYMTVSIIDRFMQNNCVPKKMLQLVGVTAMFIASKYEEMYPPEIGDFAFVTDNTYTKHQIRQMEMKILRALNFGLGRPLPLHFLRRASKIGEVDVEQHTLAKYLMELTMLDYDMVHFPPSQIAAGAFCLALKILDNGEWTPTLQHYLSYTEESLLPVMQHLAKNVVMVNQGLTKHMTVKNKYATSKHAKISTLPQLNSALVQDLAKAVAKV
Sequence of GSK3β (h) (P49841 whole entry): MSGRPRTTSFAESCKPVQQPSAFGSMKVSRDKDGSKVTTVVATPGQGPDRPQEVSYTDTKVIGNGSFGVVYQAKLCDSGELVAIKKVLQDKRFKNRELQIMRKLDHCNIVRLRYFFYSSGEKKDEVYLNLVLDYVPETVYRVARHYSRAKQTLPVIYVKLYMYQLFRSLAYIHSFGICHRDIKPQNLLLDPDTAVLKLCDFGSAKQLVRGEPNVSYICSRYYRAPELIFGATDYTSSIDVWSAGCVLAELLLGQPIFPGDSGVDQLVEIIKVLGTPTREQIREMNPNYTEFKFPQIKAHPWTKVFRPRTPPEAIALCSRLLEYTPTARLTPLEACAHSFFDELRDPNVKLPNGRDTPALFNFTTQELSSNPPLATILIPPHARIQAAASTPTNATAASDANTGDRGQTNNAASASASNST
Sequence of PLK2 (h) (Q9NYY3 whole entry): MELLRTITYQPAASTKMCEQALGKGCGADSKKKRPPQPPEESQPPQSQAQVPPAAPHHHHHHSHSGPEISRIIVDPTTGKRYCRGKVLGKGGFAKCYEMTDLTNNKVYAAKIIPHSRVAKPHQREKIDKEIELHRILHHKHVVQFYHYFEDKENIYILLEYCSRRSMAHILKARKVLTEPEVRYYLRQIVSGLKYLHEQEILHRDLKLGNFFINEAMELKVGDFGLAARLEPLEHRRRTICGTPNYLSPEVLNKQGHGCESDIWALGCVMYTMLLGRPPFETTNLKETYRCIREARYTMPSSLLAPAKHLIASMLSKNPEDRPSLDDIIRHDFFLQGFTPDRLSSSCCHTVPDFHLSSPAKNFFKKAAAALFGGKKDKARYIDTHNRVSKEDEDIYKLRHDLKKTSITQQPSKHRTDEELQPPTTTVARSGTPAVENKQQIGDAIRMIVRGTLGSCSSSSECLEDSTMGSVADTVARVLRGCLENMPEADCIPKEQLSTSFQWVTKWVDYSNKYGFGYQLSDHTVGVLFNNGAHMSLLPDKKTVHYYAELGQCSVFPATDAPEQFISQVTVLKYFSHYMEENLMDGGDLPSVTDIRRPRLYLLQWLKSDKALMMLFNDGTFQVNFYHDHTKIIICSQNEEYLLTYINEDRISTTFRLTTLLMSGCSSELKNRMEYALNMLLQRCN

For `CN1CCN(C)c2ccc(cn2)-c2ccnc(n2)Nc2cc(c3c(c2)OCO3)CN2CCC[C@H]2C1=O` [Compound 168], the IC50 in assay [1] is 3.55 µM; in assay [2] it was 1.45 µM; in assay [3], 8.13 µM; in assay [4], above 10 µM; in assay [5], above 10 µM; in assay [6], above 10 µM. For the same compound, the IC50 in assay [7] is 6.76 µM; in [8], above 10 µM; in [9], above 10 µM.

`CC(C)Nc1cc2cc(c1)Nc1nccc(n1)-c1ccc(cc1)CN(C)CCCNC(=O)C1CCN(CC1)C2` [Compound 65]: the IC50 in assay [1] was 1.23 µM; in assay [2] it was 3.24 µM; in [3] it was above 10 µM; in [4], above 10 µM; in [5], above 10 µM; in assay [6], above 10 µM. For the same compound, the IC50 in assay [7] was 7.24 µM; in assay [8], above 10 µM; in assay [9], above 10 µM.

As to `COc1cc2cc(c1)Nc1nccc(n1)-c1ccc(OC)c(c1)CN(C)CCCNC(=O)C1CCN(CC1)C2` [Compound 73], the IC50 in assay [1] is 2.57 µM; in [2], above 10 µM; in [3], above 10 µM; in assay [4], above 10 µM; in assay [5] it was above 10 µM; in assay [6], 3.09 µM. The IC50 in assay [7] was 5.13 µM; in [8], above 10 µM; in [9], above 10 µM.

Turning to `C[C@@H]1NCc2ccc(cc2)Nc2nccc(n2)-c2cccc(c2)CNC1=O` [Compound 190], the IC50 was above 10 µM in assay [1]; 1.29 µM in [2]; 6.46 µM in [3]; above 10 µM in [4]; above 10 µM in assay [5]; above 10 µM in assay [6]. Besides, the IC50 in [7], in assay [8] and in assay [9] was above 10 µM in each case.

Turning to `C[C@@H]1NCc2cccc(c2)Nc2nccc(n2)-c2cccc(c2)CNC1=O` [Compound 184], the IC50 is 0.776 µM in [1]; 0.102 µM in assay [2]; 0.398 µM in [3]; above 10 µM in assay [4]; above 10 µM in [5]; 5.37 µM in assay [6]. The IC50 in assay [7] is above 10 µM; in [8], 5.01 µM; in [9] it was above 10 µM.

`COc1cc2cc(c1OC)CN1CCC[C@H]1C(=O)N(C)CCN(C)c1cc(ccn1)-c1ccnc(n1)N2` [Compound 17]: the IC50 in [1] is 2.69 µM; in assay [2], 0.851 µM; in assay [3] it was 8.13 µM; in assay [4] it was above 10 µM; in assay [5], above 10 µM; in [6], above 10 µM. Besides, the IC50 in assay [7], in assay [8] and in assay [9] was above 10 µM throughout.

`COc1ccc2cc1CN(C)CCNC(=O)[C@H](CO)NCc1cc(cc(N3CCOCC3)c1)Nc1nccc-2n1` [Compound 105]: the IC50 in [1] is 0.447 µM; in [2], above 10 µM; in [3] it was above 10 µM; in [4], above 10 µM; in assay [5], above 3.02 µM; in assay [6], above 10 µM. The IC50 in [7], in assay [8] and in assay [9] was above 10 µM in each case.
